The source of these data is ChEMBL document CHEMBL1130030, “Tyrosine kinase inhibitors. 11. Soluble analogues of pyrrolo- and pyrazoloquinazolines as epidermal growth factor receptor inhibitors: synthesis, biological evaluation, and modeling of the mode of binding” (J Med Chem, 1997).

Assay [1] addresses T1, Epidermal growth factor receptor (Homo sapiens, UniProt P00533). Kind of assay: Inhibition of autophosphorylation of epidermal growth factor receptor prepared from human A431 carcinoma cells.
In assay [2] the target is T1, Epidermal growth factor receptor. Description: Inhibition of the phosphorylation of a random polyglutamic acid/tyrosine copolymer by human epidermal growth factor receptor(EGFR) prepared from human A431 carcinoma cells.

T1 sequence (P00533 whole entry): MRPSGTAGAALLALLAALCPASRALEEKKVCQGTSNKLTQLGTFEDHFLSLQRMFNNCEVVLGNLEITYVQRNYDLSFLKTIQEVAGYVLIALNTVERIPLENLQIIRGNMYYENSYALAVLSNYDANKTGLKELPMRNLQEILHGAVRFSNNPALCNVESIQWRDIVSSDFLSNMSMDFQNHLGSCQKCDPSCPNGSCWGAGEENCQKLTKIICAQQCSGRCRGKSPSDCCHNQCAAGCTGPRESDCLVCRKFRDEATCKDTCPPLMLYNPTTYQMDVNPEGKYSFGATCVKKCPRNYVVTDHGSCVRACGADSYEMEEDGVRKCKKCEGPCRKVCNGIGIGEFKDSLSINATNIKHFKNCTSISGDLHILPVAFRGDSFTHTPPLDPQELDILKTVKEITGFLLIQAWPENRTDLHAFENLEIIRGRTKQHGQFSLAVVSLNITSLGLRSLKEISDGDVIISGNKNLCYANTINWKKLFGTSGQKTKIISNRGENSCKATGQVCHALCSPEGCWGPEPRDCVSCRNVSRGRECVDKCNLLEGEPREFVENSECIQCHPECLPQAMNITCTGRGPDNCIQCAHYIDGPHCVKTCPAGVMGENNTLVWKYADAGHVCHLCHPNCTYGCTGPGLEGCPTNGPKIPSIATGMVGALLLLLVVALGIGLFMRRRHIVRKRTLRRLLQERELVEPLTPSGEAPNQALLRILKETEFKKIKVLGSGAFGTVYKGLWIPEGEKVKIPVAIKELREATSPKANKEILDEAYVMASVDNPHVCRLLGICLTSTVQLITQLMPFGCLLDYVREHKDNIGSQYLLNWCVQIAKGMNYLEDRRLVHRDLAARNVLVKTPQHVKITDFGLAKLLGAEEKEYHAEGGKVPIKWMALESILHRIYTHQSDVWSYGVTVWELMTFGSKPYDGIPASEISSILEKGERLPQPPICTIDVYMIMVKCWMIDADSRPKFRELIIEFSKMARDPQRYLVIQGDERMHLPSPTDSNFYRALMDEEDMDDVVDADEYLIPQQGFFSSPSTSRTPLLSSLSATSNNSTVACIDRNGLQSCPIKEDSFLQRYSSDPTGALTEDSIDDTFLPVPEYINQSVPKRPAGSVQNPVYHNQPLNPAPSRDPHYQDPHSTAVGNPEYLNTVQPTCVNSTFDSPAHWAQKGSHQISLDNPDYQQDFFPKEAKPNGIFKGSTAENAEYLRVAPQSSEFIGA

The term IC50 denotes the concentration needed to halve the response being measured. Read a low IC50 as greater potency in that assay. For `CN(C)Cc1c[nH]c2cc3ncnc(Nc4cccc(Br)c4)c3cc12`, the IC50 in assay [1] was found to be 9.7 nM; in assay [2], 2.6 nM.

As for `CN(C)CCCn1ccc2cc3c(Nc4cccc(Br)c4)ncnc3cc21`, the results for the IC50 in assay [1] and in assay [2] were 230 nM and 21 nM, respectively. On to `CN(C)CCn1ncc2cc3c(Nc4cccc(Br)c4)ncnc3cc21`, for which the IC50 came to 262 nM in assay [1] and 40 nM in assay [2]. Regarding `O=C(O)Cn1ccc2cc3c(Nc4cccc(Br)c4)ncnc3cc21`, the IC50 came out at 1780 nM in assay [1] and 5.1 nM in assay [2]. On the same counts, the results for `CN(CC(=O)O)Cc1c[nH]c2cc3ncnc(Nc4cccc(Br)c4)c3cc12` are 584 nM and 0.72 nM. Consider `COc1cccc2c(Nc3cccc(Br)c3)ncnc12`, for which the IC50 in assay [2] was more than 10000 nM.

For `OCCN(CCO)Cc1c[nH]c2cc3ncnc(Nc4cccc(Br)c4)c3cc12`, the IC50 was 135 nM in assay [1] and 3.5 nM in assay [2]. As to `Cn1ccc2cc3c(Nc4cccc(Br)c4)ncnc3cc21`, the values for the IC50 in assay [1] and in assay [2] were 22 nM and 0.8 nM, respectively. Consider `Brc1cccc(Nc2ncnc3cc4[nH]cc(CN5CCOCC5)c4cc23)c1`, for which the values for the IC50 in assay [1] and in assay [2] were 9.6 nM and 4.8 nM, respectively. `Cc1nc(Nc2cccc(Br)c2)c2ccccc2n1` registered a half-inhibitory concentration (IC50) in assay [2] of more than 10000 nM. With `CN(C)CCn1ccc2cc3c(Nc4cccc(Br)c4)ncnc3cc21`, the IC50 came out at 145 nM in assay [1] and 41 nM in assay [2]. On the same counts, the results for `OCC(O)Cn1ncc2cc3c(Nc4cccc(Br)c4)ncnc3cc21` (configuration not stated) are 318 nM and 12 nM. Regarding `Cn1ncc2cc3c(Nc4cccc(Br)c4)ncnc3cc21`, the figures for the IC50 in assay [1] and in assay [2] were 13 nM and 0.37 nM, respectively. `Brc1cccc(Nc2ncnc3cc4[nH]ncc4cc23)c1` displayed an IC50 in assay [1] of 20 nM. Consider `Brc1cccc(Nc2ncnc3cc4c(cnn4CCCN4CCOCC4)cc23)c1`, for which the figures for the IC50 in assay [1] and in assay [2] were 77 nM and 8.8 nM, respectively. In assay [2], `Brc1cccc(Nc2nccc3ccccc23)c1` had an IC50 of more than 100000 nM. For `COC(=O)CN(C)Cc1c[nH]c2cc3ncnc(Nc4cccc(Br)c4)c3cc12`, the results for the IC50 in assay [1] and in assay [2] were 9.6 nM and 3.4 nM, respectively. For `CN(C)CCN(C)Cc1c[nH]c2cc3ncnc(Nc4cccc(Br)c4)c3cc12`, in that order: 81 nM and 7.5 nM. For `Brc1cccc(Nc2ncnc3cc4c(ccn4CCN4CCOCC4)cc23)c1`, in that order: 16 nM and 3.7 nM. In assay [1], `Brc1cccc(Nc2ncnc3cc4[nH]ccc4cc23)c1` gave an IC50 of 22 nM. In the case of `OCC(O)Cn1ccc2cc3c(Nc4cccc(Br)c4)ncnc3cc21` (configuration not stated), the IC50 worked out at 49 nM in assay [1] and 1.6 nM in assay [2].
